Tests used:
Experiment in all cases: Kinase profiling, 33P ATP filter binding assay
Format in all cases: biochemical
Conditions in all cases: 1 micromolar inhibitor concentration, read-out: percentage inhibition
EIF2AK3 = EIF2AK3 (Homo sapiens (Human), UniProt Q9NZJ5)
ZAP70 = ZAP70 (Homo sapiens (Human), UniProt P43403)
MKK6 = MKK6 (Homo sapiens (Human), UniProt P52564)
TIE2 = TIE2 (Homo sapiens (Human), UniProt Q02763)
PRK2 = PRK2 (Homo sapiens (Human), UniProt Q16513)
YES1 = YES1 (Homo sapiens (Human), UniProt P07947)
ULK1 = ULK1 (Homo sapiens (Human), UniProt O75385)
MPSK1 = MPSK1 (Homo sapiens (Human), UniProt O75716)
TTK = TTK (Homo sapiens (Human), UniProt P33981)
VEG-FR = VEG-FR (Homo sapiens (Human), UniProt P17948)
MKK2 = MKK2 (Homo sapiens (Human), UniProt P36507)
EPH-B4 = EPH-B4 (Homo sapiens (Human), UniProt P54760)
ASK1 = ASK1 (Homo sapiens (Human), UniProt Q99683)
PKCy = PKCy (Homo sapiens (Human), UniProt P05129)
MLK3 = MLK3 (Homo sapiens (Human), UniProt Q16584)
IGF-1R = IGF-1R (Homo sapiens (Human), UniProt P08069)
MST3 = MST3 (Homo sapiens (Human), UniProt Q9Y6E0)
HIPK3 = HIPK3 (Homo sapiens (Human), UniProt Q9H422)
MST2 = MST2 (Homo sapiens (Human), UniProt Q13188)
PAK6 = PAK6 (Homo sapiens (Human), UniProt Q9NQU5)
PDK1 = PDK1 (Homo sapiens (Human), UniProt O15530)
EPH-A2 = EPH-A2 (Homo sapiens (Human), UniProt P29317)
EPH-B3 = EPH-B3 (Homo sapiens (Human), UniProt P54753)
EPH-B2 = EPH-B2 (Homo sapiens (Human), UniProt P29323)
FGF-R1 = FGF-R1 (Homo sapiens (Human), UniProt P11362)
CDK9-Cyclin T1 = CDK9-Cyclin T1 (Homo sapiens (Human), UniProt P50750)
MSK1 = MSK1 (Homo sapiens (Human), UniProt O75582)
BRSK1 = BRSK1 (Homo sapiens (Human), UniProt Q8TDC3)
MLK1 = MLK1 (Homo sapiens (Human), UniProt P80192)
MARK2 = MARK2 (Homo sapiens (Human), UniProt Q7KZI7)
JNK3 = JNK3 (Homo sapiens (Human), UniProt P53779)
TSSK1 = TSSK1 (Homo sapiens (Human), UniProt Q9BXA7)
SRPK1 = SRPK1 (Homo sapiens (Human), UniProt Q96SB4)
ERK5 = ERK5 (Homo sapiens (Human), UniProt Q13164)
ULK2 = ULK2 (Homo sapiens (Human), UniProt Q8IYT8)
p38d MAPK = p38d MAPK (Homo sapiens (Human), UniProt O15264)
IRAK1 = IRAK1 (Homo sapiens (Human), UniProt P51617)
TBK1 = TBK1 (Homo sapiens (Human), UniProt Q9UHD2)
EPH-A4 = EPH-A4 (Homo sapiens (Human), UniProt P54764)
ERK2 = ERK2 (Homo sapiens (Human), UniProt P28482)
HER4 = HER4 (Homo sapiens (Human), UniProt Q15303)

Measured: inhibition at 1 µM

Sequence of ULK2 (Q8IYT8 whole entry, species assumed): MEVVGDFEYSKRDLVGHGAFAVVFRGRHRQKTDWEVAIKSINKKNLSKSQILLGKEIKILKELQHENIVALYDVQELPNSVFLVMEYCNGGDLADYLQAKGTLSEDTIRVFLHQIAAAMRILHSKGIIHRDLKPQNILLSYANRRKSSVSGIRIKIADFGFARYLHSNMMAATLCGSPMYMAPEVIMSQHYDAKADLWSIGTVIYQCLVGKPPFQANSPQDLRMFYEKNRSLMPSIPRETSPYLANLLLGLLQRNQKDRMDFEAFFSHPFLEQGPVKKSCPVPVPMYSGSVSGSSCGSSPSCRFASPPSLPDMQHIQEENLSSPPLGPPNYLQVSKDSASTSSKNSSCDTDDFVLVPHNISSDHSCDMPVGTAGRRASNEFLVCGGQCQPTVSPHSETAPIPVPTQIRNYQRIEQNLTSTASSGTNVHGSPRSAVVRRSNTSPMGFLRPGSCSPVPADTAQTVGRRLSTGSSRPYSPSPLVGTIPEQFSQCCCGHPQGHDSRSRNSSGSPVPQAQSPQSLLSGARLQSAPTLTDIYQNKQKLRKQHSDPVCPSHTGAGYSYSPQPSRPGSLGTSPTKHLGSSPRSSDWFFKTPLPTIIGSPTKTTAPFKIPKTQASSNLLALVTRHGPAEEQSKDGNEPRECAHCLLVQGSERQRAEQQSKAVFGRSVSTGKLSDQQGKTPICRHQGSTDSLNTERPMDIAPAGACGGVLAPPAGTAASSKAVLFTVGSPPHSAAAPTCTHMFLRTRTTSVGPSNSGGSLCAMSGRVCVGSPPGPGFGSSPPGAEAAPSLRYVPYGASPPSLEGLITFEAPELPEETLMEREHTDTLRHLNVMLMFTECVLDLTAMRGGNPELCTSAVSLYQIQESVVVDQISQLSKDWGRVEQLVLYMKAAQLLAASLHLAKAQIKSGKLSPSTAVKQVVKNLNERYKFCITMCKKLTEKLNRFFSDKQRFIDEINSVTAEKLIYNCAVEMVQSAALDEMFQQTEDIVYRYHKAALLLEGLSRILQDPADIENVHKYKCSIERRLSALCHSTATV
Sequence of FGF-R1 (P11362 22-822, species assumed): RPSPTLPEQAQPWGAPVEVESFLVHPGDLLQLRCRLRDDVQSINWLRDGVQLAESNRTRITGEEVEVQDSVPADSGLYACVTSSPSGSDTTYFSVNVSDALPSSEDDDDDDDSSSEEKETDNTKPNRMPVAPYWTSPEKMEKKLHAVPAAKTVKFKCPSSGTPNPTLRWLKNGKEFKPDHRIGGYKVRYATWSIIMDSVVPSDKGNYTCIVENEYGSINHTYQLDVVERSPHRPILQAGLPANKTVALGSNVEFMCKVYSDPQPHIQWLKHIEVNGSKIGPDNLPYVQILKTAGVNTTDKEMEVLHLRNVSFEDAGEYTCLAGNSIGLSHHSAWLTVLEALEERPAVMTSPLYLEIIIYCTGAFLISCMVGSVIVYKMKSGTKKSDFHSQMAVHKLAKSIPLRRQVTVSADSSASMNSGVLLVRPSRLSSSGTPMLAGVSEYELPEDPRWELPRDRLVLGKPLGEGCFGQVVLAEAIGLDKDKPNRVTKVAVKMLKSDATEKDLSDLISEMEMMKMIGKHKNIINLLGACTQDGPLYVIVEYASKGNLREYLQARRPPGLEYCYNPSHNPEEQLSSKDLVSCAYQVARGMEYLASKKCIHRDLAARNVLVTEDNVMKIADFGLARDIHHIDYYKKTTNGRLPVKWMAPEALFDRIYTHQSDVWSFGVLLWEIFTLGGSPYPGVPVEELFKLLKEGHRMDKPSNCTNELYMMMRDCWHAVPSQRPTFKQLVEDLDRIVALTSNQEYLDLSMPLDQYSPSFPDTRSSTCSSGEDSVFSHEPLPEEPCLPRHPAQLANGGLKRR
Sequence of HER4 (Q15303 26-1308, species assumed): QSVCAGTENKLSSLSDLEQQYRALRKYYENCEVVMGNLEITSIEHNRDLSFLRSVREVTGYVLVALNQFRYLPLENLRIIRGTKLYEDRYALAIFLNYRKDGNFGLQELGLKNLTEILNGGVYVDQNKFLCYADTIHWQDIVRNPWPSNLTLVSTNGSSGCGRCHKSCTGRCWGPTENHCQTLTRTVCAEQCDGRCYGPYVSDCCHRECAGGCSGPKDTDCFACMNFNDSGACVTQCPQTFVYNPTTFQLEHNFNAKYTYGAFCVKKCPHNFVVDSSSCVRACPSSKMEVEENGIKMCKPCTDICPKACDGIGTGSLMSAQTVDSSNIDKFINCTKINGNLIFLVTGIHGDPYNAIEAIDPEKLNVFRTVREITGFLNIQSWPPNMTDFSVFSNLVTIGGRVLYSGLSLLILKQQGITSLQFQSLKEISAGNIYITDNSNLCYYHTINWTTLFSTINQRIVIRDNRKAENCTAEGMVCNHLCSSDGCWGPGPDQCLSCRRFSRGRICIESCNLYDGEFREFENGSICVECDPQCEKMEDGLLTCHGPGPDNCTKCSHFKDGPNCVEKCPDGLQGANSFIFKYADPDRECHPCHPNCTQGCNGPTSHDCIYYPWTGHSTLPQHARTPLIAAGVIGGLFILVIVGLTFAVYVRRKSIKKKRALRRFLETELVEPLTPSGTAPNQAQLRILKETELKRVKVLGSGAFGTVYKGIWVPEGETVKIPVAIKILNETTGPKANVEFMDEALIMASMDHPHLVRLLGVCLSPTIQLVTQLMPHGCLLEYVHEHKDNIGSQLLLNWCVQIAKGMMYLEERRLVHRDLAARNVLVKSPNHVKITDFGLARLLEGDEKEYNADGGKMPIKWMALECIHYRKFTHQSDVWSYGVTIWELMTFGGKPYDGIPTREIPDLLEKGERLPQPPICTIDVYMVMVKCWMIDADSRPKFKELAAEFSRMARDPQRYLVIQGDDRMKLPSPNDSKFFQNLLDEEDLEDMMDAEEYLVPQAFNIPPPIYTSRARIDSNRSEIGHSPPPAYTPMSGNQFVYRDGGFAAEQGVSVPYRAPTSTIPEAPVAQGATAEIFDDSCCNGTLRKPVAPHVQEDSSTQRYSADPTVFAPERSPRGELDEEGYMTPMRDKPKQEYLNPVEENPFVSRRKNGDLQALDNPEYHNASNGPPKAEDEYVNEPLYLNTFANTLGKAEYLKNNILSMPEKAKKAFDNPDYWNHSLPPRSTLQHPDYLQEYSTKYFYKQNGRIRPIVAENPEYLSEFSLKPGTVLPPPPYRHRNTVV
Sequence of CDK9-Cyclin T1 (P50750 whole entry): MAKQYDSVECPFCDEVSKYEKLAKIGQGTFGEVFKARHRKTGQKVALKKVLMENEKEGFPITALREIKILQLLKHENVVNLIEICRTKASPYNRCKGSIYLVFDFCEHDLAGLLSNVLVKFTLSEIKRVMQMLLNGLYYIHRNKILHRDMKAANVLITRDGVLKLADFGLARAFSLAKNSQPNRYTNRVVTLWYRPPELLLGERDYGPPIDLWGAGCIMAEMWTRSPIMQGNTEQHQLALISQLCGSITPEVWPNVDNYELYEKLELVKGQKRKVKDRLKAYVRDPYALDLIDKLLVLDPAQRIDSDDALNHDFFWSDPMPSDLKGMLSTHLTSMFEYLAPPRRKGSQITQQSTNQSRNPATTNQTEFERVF
Sequence of CDK9-Cyclin T1 (O60563 whole entry partner): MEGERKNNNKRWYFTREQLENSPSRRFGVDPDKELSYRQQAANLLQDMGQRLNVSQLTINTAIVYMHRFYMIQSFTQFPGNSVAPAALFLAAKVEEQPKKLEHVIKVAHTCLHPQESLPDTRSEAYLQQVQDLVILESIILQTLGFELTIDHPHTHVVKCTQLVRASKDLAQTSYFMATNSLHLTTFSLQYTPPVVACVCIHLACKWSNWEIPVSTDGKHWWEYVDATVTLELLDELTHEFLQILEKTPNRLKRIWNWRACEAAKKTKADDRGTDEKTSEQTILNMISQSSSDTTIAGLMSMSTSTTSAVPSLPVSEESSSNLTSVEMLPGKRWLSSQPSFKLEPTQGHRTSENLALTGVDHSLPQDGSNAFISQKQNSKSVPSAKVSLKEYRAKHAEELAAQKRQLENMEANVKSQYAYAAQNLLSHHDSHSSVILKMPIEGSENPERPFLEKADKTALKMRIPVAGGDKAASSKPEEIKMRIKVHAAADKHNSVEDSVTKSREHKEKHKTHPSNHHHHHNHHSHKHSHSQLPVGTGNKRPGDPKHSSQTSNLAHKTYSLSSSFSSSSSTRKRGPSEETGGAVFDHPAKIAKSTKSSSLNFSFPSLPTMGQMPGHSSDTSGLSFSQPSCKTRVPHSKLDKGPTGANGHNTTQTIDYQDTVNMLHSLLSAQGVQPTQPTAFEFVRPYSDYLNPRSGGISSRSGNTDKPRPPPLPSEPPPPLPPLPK

COc1ccc2sc(-c3cncc(NC(C)=O)c3)nc2c1 [4-93, N-(5-(5-Methoxybenzo[d]thiazol-2-yl)pyridin-3-yl)acetamide]
25%: MKK2
28%: ERK5
12%: TTK
0%: all other assays above

CS(=O)(=O)Nc1cncc(-c2nc3cc(O)ccc3s2)c1 [4-99, N-(5-(5-Hydroxybenzo[d]thiazol-2-yl)pyridin-3-yl)methanesulfonamide]
2%: EPH-B3
11%: MPSK1
7%: ERK5
3%: TIE2
0%: all other assays above

From patent US10927106B2, “Benzothiazole derivatives as DYRK1 inhibitors” (PHARMASUM THERAPEUTICS AS, priority 2017, dated 2021)
